Values of other authors as cited in patent US10188593B2, “Polysaccharide delivery particle” (Spray-Tek, Inc., priority 2016, dated 2019).

Conditions: perfume oil ingredients

Compound | Octanol/water Partition Coefficient (logP)
C=CC(C)CCCC(C)(C)O (centres unmarked) [Dihydromyrcenol] | 3.08
CCOC(=O)C(C)CC (centres unmarked) [Ethyl_2-methylbutyrate] | 1.91
CCOc1cc(C=O)ccc1O [Ethyl_vanillin] | 1.53
CC(C)c1cccc(C(C)CC=O)c1 (centres unmarked) [Florhydral] | 3.59
CC=Cc1ccc(O)c(OC)c1 [Isoeugenol] | 1.85
CCCCCCCCCCCC#N [Lauronitrile] | 4.84
CCC=C(C)C(O)CCCCC (centres unmarked) [Undecavertol] | 3.06
CC(=O)/C=C/C1=C(C)CCCC1(C)C [beta-Ionone] | 4.02
C=C(C)[C@H]1CC=C(C)CC1 [d-Limonene] | 4.38

The remaining lines, values ahead:

Octanol/water Partition Coefficient (logP) | Compound
2.76 | CC(C)=CCCC(C)CCO (single isomer, unassigned; (-)) [(−)-Citronellol]
2.81 | C=CCOC(=O)COCCC(C)C [Allyl_amyl_glycolate]
3.7 | CC(=O)OCCC(C)CCC=C(C)C (centres unmarked) [Citronellyl_acetate]
2.64 | CCCCCCOC(C)=O [Hexyl_acetate]
2.44 | C=CC(C)(O)CCC=C(C)C (centres unmarked) [Linalool]
